{"source": "patent US20230263725A1", "about": "“INTRANASAL ADMINISTRATION OF AN ANTIOXIDANT COMPOUND FOR TREATING CORONAVIRUS INFECTION” (priority 2020, published 2023)", "key": {"[1]": {"test_system": "GSH levels in the brain", "settings": "NAC delivered intranasally and orally; cited from earlier work"}, "[2]": {"test_system": "SARS-CoV-2", "assay": "Oral NAC in mild or moderate COVID-19, open label controlled study NCT04419025", "assay_type": "in vivo"}, "[3]": {"assay": "Safety and tolerability of intranasal NAC in healthy subjects"}, "[4]": {"test_system": "brain glutathione (GSH/Cr)", "assay": "Intranasal NAC, brain glutathione by MEGA PRESS MR Spectroscopy in healthy subjects", "assay_type": "in vivo, humans", "protocol": "In this example, intranasal administration of NAC to healthy humans was studied.\nThe study consisted of two study periods each involving 3 subjects and was designed to provide rapid proof-of-concept data on the ability of intranasal NAC to increase brain GSH levels. In Study Period 1, three right-handed male subjects, and 58 were evaluated. After informed consent and completion of a medical history questionnaire, each subject participated in multiple MR Spectroscopy sessions. On the first day, each subject was scanned once. A T1-weighted thin slice data set was acquired for subsequent positioning of a MR spectroscopy voxel (5×5×3 cm3) positioned with its posterior edge covering the genu of the corpus callosum, extending anteriorly into the frontal lobes.\nGSH levels were determined within the volume of interest using […] double-editing for the cysteinyl β-CH2 residue of GSH. Spectral editing was accomplished by refocusing GSH J-evolution during every other acquisition (ON), using a Gaussian pulse centered at the cysteinyl α-CH resonance of GSH at 4.56 p.p.m. During the alternate acquisitions (OFF), the pulse was applied symmetrically about the water peak. The difference-edited GSH spectrum was generated by subtraction of the OFF and ON spectra. Data analysis was accomplished using the GANNET software package which provided information on the GSH/Cr ratio. The Day 1 scan served as an initial baseline.\nOn Day 2, another baseline evaluation was performed, along with two additional scans at 1-hour and 2-hours post administration of intranasal NAC. The timing of Day 2 scans was shifted relative to Day 1, such that the time-of-day for the Day 1 baseline scan matched the time-of-day of the Day 2, 1-hour post NAC scan. This is illustrated in FIG. 2 and was done to provide control for potential circadian rhythm effects in GSH levels. In FIG. 2, green bars show times of spectroscopic imaging. The time-of-day for the baseline MRS scan on Day 1 matches the time-of-day for the 1-hour post-NAC scan on Day 2.\nSolution was delivered as six alternating bursts of 0.33 ml to each nostril over the course of 5-10 minutes.\nIn Study Period 2, three additional right-handed male subjects, and 31 were studied. MRS data were collected on a single day, with baseline, 1 hr, 2 hrs, and 4 hrs post-NAC evaluations (as illustrated in FIG. 5). The same spectroscopic methods as used in period 1 were employed. However, a multi-dose pump intranasal delivery device was used."}, "[5]": {"settings": "cited from earlier work; for F total meas (total bioavailability experimentally determined): naltrexone 4 mg"}, "[6]": {"test_system": "A/H1N1 Singapore 6/86 influenza virus", "settings": "oral NAC over 6 months; control 79%; cited from earlier work"}, "[7]": {"settings": "intranasal, with versus without DDM"}, "[8]": {"settings": "study period 1, intranasal 20% MUCOMYST, 1 ml per nostril, mucosal atomization device, subject (male)"}, "[9]": {"settings": "study period 2, intranasal, multi-dose pump, (male)"}, "[10]": {"settings": "intranasal + DDM, sumatriptan 10 mg"}, "[11]": {"settings": "intranasal, without DDM, sumatriptan 20 mg"}}, "note": "Several values for one entry are separate records, joined by “and”; a condition that tells them apart may be missing. Identical values can stand only once. Like-named read-outs stand apart in the source and are kept apart here.", "data": [{"smiles": "CC(=O)N[C@@H](CS)C(=O)O", "note": "[NAC, N-acetyl cysteine]", "values": [{"measurement": "effect on GSH levels in the brain", "setting": "[1]", "value": "increase in GSH levels in the brain"}, {"measurement": "fewer days in the hospital versus no NAC", "setting": "[2]; hospitalized group, oral NAC", "value": 1, "unit": "days"}, {"measurement": "hospitalization days", "setting": "[2]; hospitalized group, oral NAC 25 mg/kg every 4 hours, 6 days without NAC", "value": 5, "unit": "days"}, {"measurement": "deaths", "setting": "[2]; hospitalized group, oral NAC, group without NAC had 2-3 deaths", "value": "no deaths"}, {"measurement": "increase in hospitalization needed for those who did not receive oral NAC", "setting": "[2]; outpatients", "value": "~5", "unit": "x"}, {"measurement": "outpatients needing hospitalization", "setting": "[2]; outpatients, mild cases, oral NAC 2400 mg then 1200 mg 2x/day for 2 weeks, 15% without NAC", "value": "3-4%"}, {"measurement": "changes in heart-rate, breathing rate, O2 saturation or blood pressure", "setting": "[3]; intranasal NAC", "value": "No significant changes"}, {"measurement": "duration of transient nausea", "setting": "[3]; intranasal NAC", "value": "< 5", "unit": "min"}, {"measurement": "subjects voicing complaints about the NAC odor", "setting": "[3]; intranasal NAC", "value": "5 of 6"}, {"measurement": "adverse events", "setting": "[3]; intranasal NAC, 6 subjects", "value": "no adverse events were reported"}, {"measurement": "subjects reporting very mild transient nausea", "setting": "[3]; intranasal NAC, 6 subjects", "value": 2}, {"measurement": "complaints of NAC fluid into the throat", "setting": "[3]; mucosal atomizer, study period 1", "value": "all three subjects complained"}, {"measurement": "complaints of NAC fluid into the throat", "setting": "[3]; multi-dose pump, study period 2", "value": "not found"}, {"measurement": "time of peak levels", "setting": "[4]; all subjects, FIG. 8", "value": "1 to 2", "unit": "h"}, {"measurement": "effect on brain GSH as measured by MR spectroscopy", "setting": "[4]; intranasal NAC", "value": "statistically significant increase"}, {"measurement": "brain GSH levels above baseline at 4 hours", "setting": "[4]; intranasal NAC, 4 hours, FIG. 8", "value": "~ 35%"}, {"measurement": "increase in brain GSH levels (average percent change in GSH/Cr)", "setting": "[4]; intranasal NAC, combined across all subjects, FIG. 8", "value": "> 50", "unit": "%"}, {"measurement": "time for which the increase in brain GSH/Cr level is sustained post-administration", "setting": "[4]; study period 1", "value": "at least 2 hours"}, {"measurement": "Day 2, 1-hour post-NAC GSH/Cr", "setting": "[4]; [8]", "value": "0.059 and 0.037 and 0.031"}, {"measurement": "Day 2, 2-hours post-NAC GSH/Cr", "setting": "[4]; [8]", "value": "0.052 and 0.035 and 0.048"}, {"measurement": "time for which increased brain GSH/Cr levels are maintained", "setting": "[4]; study period 2", "value": "at least 4 hrs"}, {"measurement": "1-hr post-NAC GSH/Cr", "setting": "[4]; [9]", "value": "0.034 and 0.053 and 0.050"}, {"measurement": "2-hours post-NAC GSH/Cr", "setting": "[4]; [9]", "value": "0.039 and 0.042 and 0.045"}, {"measurement": "4 hrs-hours post-NAC GSH/Cr", "setting": "[4]; [9]", "value": "0.036 and 0.041 and 0.042"}, {"measurement": "bioavailability of oral NAC", "setting": "[5]; oral dosing", "value": "10% and 9-10%"}, {"measurement": "developed a symptomatic form of the A/H1N1 Singapore 6/86 influenza virus", "setting": "[6]", "value": 25, "unit": "%"}]}, {"smiles": "O=C1CC[C@@]2(O)[C@H]3Cc4ccc(O)c5c4[C@@]2(CCN3CC2CC2)[C@H]1O5", "note": "[Naltrexone]", "values": [{"measurement": "F total meas (total bioavailability experimentally determined)", "setting": "[5]; [10]", "value": 95, "unit": "%"}, {"measurement": "F total meas (total bioavailability experimentally determined)", "setting": "[5]; [11]", "value": 65, "unit": "%"}]}, {"smiles": "CNS(=O)(=O)Cc1ccc2[nH]cc(CCN(C)C)c2c1", "note": "[Sumatriptan]", "values": [{"measurement": "increase in bioavailability when dosed together with DDM", "setting": "[7]", "value": 35, "unit": "%"}, {"measurement": "F total meas (total bioavailability experimentally determined)", "setting": "[5]; [10]", "value": 69, "unit": "%"}, {"measurement": "F total meas (total bioavailability experimentally determined)", "setting": "[5]; [11]", "value": 34, "unit": "%"}]}]}
